What was measured:
Adenosine receptor A2b = biological target: T1, Adenosine receptor A2b (Homo sapiens, UniProt P29275); assay: Antagonist activity at human adenosine A2B receptor expressed in CHOK1 cells assessed as inhibition of calcium mobilization by FLIPR assay; type: functional, cell-based, CHO-K1
T1 sequence (P29275 whole entry): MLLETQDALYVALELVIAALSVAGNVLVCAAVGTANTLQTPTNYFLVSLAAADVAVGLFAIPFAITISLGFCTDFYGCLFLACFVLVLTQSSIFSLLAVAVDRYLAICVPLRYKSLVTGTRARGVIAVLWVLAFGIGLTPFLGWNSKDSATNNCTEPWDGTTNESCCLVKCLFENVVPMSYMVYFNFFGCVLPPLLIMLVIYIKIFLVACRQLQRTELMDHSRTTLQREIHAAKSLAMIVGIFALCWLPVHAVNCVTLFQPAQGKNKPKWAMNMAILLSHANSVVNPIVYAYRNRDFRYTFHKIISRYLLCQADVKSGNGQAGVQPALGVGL

Adenosine receptor A2a = Adenosine receptor A2a (Homo sapiens, UniProt P29274); assay: Antagonist activity at human adenosine A2A receptor expressed in CHOK1 cells assessed as inhibition of calcium mobilization by FLIPR assay; type: functional, cell-based, CHO-K1
Chain of Adenosine receptor A2a (P29274 whole entry): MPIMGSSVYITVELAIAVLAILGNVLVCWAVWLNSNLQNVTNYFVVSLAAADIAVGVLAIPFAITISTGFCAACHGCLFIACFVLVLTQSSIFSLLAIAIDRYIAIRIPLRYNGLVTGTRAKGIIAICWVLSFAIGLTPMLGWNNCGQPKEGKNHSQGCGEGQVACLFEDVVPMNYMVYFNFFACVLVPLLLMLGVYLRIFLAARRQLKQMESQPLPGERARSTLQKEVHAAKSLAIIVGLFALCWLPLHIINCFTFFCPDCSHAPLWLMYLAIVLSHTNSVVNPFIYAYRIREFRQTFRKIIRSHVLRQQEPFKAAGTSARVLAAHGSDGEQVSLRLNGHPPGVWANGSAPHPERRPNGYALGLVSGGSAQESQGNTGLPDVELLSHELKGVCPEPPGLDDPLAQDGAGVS

[1] = Permeability across human Caco-2 cells; type: ADME, cell-based; settings: read-out: permeability
[2] = biological target: Voltage-gated inwardly rectifying potassium channel KCNH2 (Homo sapiens, UniProt Q12809); assay: Inhibition of human ERG at 30 uM by patch clamp method
Chain of Voltage-gated inwardly rectifying potassium channel KCNH2 (Q12809 whole entry): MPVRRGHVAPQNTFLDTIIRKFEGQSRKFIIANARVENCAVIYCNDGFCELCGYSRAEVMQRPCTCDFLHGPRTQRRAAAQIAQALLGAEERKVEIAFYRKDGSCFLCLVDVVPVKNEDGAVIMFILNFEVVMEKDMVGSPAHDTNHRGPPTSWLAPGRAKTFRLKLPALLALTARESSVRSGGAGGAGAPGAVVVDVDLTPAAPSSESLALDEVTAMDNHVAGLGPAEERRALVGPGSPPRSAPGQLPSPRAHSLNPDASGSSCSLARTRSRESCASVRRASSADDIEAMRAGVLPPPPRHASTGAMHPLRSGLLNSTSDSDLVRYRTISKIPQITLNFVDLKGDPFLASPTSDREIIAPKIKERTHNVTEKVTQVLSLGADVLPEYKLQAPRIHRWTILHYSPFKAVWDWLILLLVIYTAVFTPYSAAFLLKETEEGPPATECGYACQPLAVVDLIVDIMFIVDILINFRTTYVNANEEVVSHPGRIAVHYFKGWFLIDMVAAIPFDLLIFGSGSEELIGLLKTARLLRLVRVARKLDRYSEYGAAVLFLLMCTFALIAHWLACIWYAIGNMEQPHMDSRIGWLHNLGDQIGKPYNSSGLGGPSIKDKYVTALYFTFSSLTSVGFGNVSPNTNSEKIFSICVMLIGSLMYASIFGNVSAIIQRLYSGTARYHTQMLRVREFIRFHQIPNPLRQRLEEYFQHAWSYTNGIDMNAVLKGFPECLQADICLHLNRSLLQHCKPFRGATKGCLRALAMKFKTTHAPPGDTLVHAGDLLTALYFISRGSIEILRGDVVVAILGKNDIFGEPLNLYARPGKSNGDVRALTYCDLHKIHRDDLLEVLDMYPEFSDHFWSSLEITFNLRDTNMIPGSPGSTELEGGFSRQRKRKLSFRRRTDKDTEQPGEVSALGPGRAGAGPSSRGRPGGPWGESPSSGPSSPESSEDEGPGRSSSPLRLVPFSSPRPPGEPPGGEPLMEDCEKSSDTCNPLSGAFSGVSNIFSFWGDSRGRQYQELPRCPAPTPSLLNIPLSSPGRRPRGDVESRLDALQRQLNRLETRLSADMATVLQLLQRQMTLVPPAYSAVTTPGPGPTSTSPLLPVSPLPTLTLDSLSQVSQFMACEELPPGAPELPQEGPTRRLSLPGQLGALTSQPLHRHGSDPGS

[3] = Half life in po dosed rat; type: ADME, organism-based; settings: in vivo
[4] = Oral bioavailability in rat; type: ADME, organism-based; settings: in vivo
[5] = Clearance in po dosed rat; type: ADME, organism-based; settings: in vivo
Rattus norvegicus = assay: Volume of distribution in po dosed rat; type: ADME, organism-based; settings: in vivo
Homo sapiens = species on record: Homo sapiens; assay: Protein binding in human plasma; settings: read-out: PPB (converted)
Plasma = assay: Clearance in human plasma

Row | IC50 (Adenosine receptor A2b) | IC50 (Adenosine receptor A2a) | Compound | other results
1 | 450 nM | 177 nM | Cc1ccc(C(=O)c2nc(NCCc3cccnc3)nc3ccsc23)s1 | 
2 | 19 nM | 118 nM | Cc1ccc(C(=O)c2nc(NC(C)c3ccccn3)nc3ccsc23)s1 (stereo not drawn) | 
3 | 13 nM | 2350 nM | CC(Nc1nc(C(=O)N2CCCC2)c2sccc2n1)c1cccnc1 (racemic) | 
4 | 17 nM | 99 nM | Cc1ccc(C(=O)c2nc(NC(C)c3cccnc3)nc3ccsc23)s1 (stereo not drawn) | 
5 | 18 nM | 51 nM | O=C(c1cccs1)c1nc(NCc2cccnc2)nc2ccsc12 | 
6 | 571 nM |  | O=C(NC1CCCCC1)c1nc(NCc2cccnc2)nc2ccsc12 | 
7 | 189 nM | 6140 nM | O=C(c1nc(NCc2cccnc2)nc2ccsc12)N1CCCC1 | 
8 | 1300 nM | 637 nM | COc1ccc(C(=O)c2nc(NCc3cccnc3)nc3ccsc23)cc1 | 
9 | 16 nM | 62 nM | O=C(c1cccs1)c1nc(NCc2cccnc2)nc2cc(Cl)sc12 | 
10 | 32 nM | > 10000 nM | Nc1cc2nc(NCc3cccnc3)nc(C(=O)c3cccs3)c2s1 | 
11 | 495 nM |  | CNC(=O)c1nc(NCc2cccnc2)nc2ccsc12 | 
12 | 109 nM | 1170 nM | O=C(c1cccnc1)c1nc(NCc2cccnc2)nc2ccsc12 | 
13 | 39 nM | 1420 nM | CN(C)c1cc2nc(NCc3cccnc3)nc(C(=O)c3cccs3)c2s1 | 
14 | 120 nM | 2520 nM | CCNC(=O)c1nc(NCc2cccnc2)nc2ccsc12 | 
15 | 148 nM | 405 nM | O=C(c1ccsc1)c1nc(NCc2cccnc2)nc2ccsc12 | 
16 | 43 nM | 186 nM | Cc1ccc(C(=O)c2nc(NCc3ccccn3)nc3ccsc23)s1 | 
17 | 256 nM | 710 nM | O=C(NC1CC1)c1nc(NCc2cccnc2)nc2ccsc12 | 
18 | 758 nM | 220 nM | Cc1ccc(C(=O)c2nc(N)nc3ccsc23)s1 | 
19 | 18 nM | 468 nM | C[C@H](Nc1nc(C(=O)N2CCCC2)c2sccc2n1)c1cccnc1 | Papp [1]: 33 ×10⁻⁶ cm/s; inhibition (INH) [2]: Not Active; half-life [3]: 2.3 h; bioavailability [4]: 84%; CL/F [5]: 43.3 mL/min/kg; Vd (Rattus norvegicus): 3.9 L/kg; fraction unbound (Homo sapiens): 0.15
20 | 511 nM | 1620 nM | O=C(c1ccccc1)c1nc(NCc2cccnc2)nc2ccsc12 | 
21 | 4140 nM | 2270 nM | Cc1ccc(C(=O)c2nc(N(C)Cc3cccnc3)nc3ccsc23)s1 | 

Row | IC50 (Adenosine receptor A2b) | IC50 (Adenosine receptor A2a) | Compound | other results
22 | 92 nM | 116 nM | Cc1ccc(C(=O)c2nc(NCc3ccncn3)nc3ccsc23)s1 | 
23 | > 10000 nM | > 10000 nM | Cc1ccc(C(=O)c2nc(NCC3CCCCC3)nc3ccsc23)s1 | 
24 | 944 nM | 351 nM | Cc1ccc(C(=O)c2nc(NCCc3ccccn3)nc3ccsc23)s1 | 
25 | 19 nM | 2490 nM | CCNc1cc2nc(NCc3cccnc3)nc(C(=O)c3cccs3)c2s1 | 
26 | 148 nM | 1720 nM | O=C(c1cncs1)c1nc(NCc2cccnc2)nc2ccsc12 | 
27 | 215 nM | 442 nM | Cc1ccc(C(=O)c2nc(NCc3cccnc3)nc3ccsc23)cc1 | 
28 | 487 nM | 1540 nM | O=C(c1ccc(Cl)s1)c1nc(NCc2cccnc2)nc2ccsc12 | 
29 | 869 nM | 1940 nM | O=C(c1ccncc1)c1nc(NCc2cccnc2)nc2ccsc12 | 
30 | 55 nM | 990 nM | Cc1ccc(C(=O)c2nc(NCc3cccnc3)nc3ccsc23)s1 | 
31 | 1260 nM | 126 nM | CCNc1nc(C(=O)c2ccc(C)s2)c2sccc2n1 | 
32 | > 10000 nM | 7850 nM | Cc1nc(C(=O)c2ccc(C)s2)c2sccc2n1 | 
33 | 176 nM | 732 nM | O=C(c1nccs1)c1nc(NCc2cccnc2)nc2ccsc12 | 
34 | 3670 nM | 3850 nM | CCc1nc(C(=O)c2ccc(C)s2)c2sccc2n1 | 
35 | 414 nM | 1080 nM | Cc1ccc(C(=O)c2nc(NC(C)c3ccccc3)nc3ccsc23)s1 (stereo not drawn) | 
36 | 5380 nM | 6690 nM | Cc1ccc(C(=O)c2ncnc3ccsc23)s1 | 
37 | 3.5 nM | 965 nM | CNc1cc2nc(NCc3cccnc3)nc(C(=O)c3cccs3)c2s1 | half-life [3]: 0.93 h; bioavailability [4]: 2%; Vd (Rattus norvegicus): 2.2 L/kg; CL (Plasma): 28.3 mL/min/kg
38 | 468 nM | 1250 nM | Cc1ccc(C(=O)c2nc(NCc3cccnc3)nc3ccsc23)o1 | 
39 | 3070 nM | 6760 nM | C[C@@H](Nc1nc(C(=O)N2CCCC2)c2sccc2n1)c1cccnc1 | 
40 | 309 nM | 2610 nM | CC(C)NC(=O)c1nc(NCc2cccnc2)nc2ccsc12 | 
41 | 287 nM | 161 nM | Cc1ccc(C(=O)c2nc(NC(=O)c3cccnc3)nc3ccsc23)s1 | 
42 | 5580 nM | 7150 nM | Cc1ccc(C(=O)c2nc(NCc3ccccc3)nc3ccsc23)s1 | 

Reference: ChEMBL document CHEMBL1154258, “Discovery and optimization of potent and selective functional antagonists of the human adenosine A2B receptor” (Bioorg Med Chem Lett, 2009)
